US20240140986A1, “SYNTHETIC URSOLIC ACID DERIVATIVES AND METHODS OF USE THEREOF” (REATA PHARMACEUTICALS, INC., priority 2021, published 2024)
Like-named read-outs stand apart in the source and are kept apart here.

Assays:
[1] = system: Nrf2 / ARE-dependent luciferase in AREc32 reporter cell line; assay: AREc32 luciferase reporter activation (Nrf2 induction); format: cell-based, human; settings: for EC (2-fold): Homo sapiens, Arec32; for Relative Avg AREc32 EC2X Relative to RTA402 (fold): ratio to RTA402
Method in brief: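 EC2X is the concentration raising luminescence 2-fold above DMSO-treated cells, from a nonlinear-regression dose–response fit. Compounds (0.03–1000 nM) were applied for nineteen hours, starting one day after seeding 20,000 reporter cells per well. Luciferase was read with One-Glo reagent.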

[2] = system: IFNγ-induced NO production in RAW 264.7 cells; assay: Nitric Oxide Suppression Assay (IFNγ-induced NO, Griess nitrite readout); format: cell-based, mouse; settings: for IC50: Mus musculus; for Avg NO IC50 Relative to RTA402 (fold): Table 2, ratio to RTA402
Method in brief: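 RAW 264.7 mouse macrophages in RPMI 1640 with 0.5% FBS were pretreated 2 h with compound (0.1% DMSO final), then stimulated with 20 ng/mL IFNγ for 24 h at 37° C. Supernatant nitrite was read by Griess absorbance at 525 nm against a nitrite standard curve, normalized to DMSO-IFNγ wells; IC50 from curve fit. Viability by WST-1.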

[3] = Table 2, concentration increasing luminescence 2-fold above vehicle, 19 h treatment, read-out: Avg AREc32 EC2X (nM) (Mean ± SD)
[4] = Table 3, ursolic acid derivatives, read-out: Avg ARE EC-2X (nM) (Mean ± SD)
[5] = RAW264.7, Table 2, RAW 264.7 cells, 2 h pretreatment, 20 ng/mL interferon gamma 24 h, read-out: Avg NO IC50 (nM) (Mean ± SD)
[6] = RAW264.7, Table 3, ursolic acid derivatives, read-out: Avg NO IC50 (nM) (Mean ± SD)
[7] = Table 3, oleanolic acid derivative analogs, read-out: Avg ARE EC-2X
[8] = RAW264.7, Table 3, oleanolic acid derivative analogs, read-out: Avg NO IC50

| Compound | IC50 [2, 5] [nM] | IC50 [2, 6] [nM] | Avg NO IC50 Relative to RTA402 (fold) [2] [fold] | IC50 [2, 8] [nM] | EC (2-fold) [1, 3] [nM] | EC (2-fold) [1, 4] [nM] | Relative Avg AREc32 EC2X Relative to RTA402 (fold) ([1]; Table 2) | EC (2-fold) [1, 7] [nM] |
| --- | --- | --- | --- | --- | --- | --- | --- | --- |
| Cc1nc([C@]23CC[C@@H](C)[C@H](C)[C@H]2[C@H]2C(=O)C=C4[C@@]5(C)C=C(C#N)C(=O)C(C)(C)[C@@H]5CC[C@@]4(C)[C@]2(C)CC3)no1 [Compound T82] | 5.58 ± 0.32 | 5.58 ± 0.32 | 3.69 ± 0.82 |  | 10 ± 3 | 10 ± 3 | 1.01 ± 0.11 |  |
| C[C@@H]1[C@H]2[C@H]3C(=O)C=C4[C@@]5(C)C=C(C#N)C(=O)C(C)(C)[C@@H]5CC[C@@]4(C)[C@]3(C)CC[C@@]2(n2cc(Br)cn2)CC[C@H]1C [Compound T63] | 58.4 ± 9.1 |  | 23.3 ± 10.3 |  | 76 ± 9.6 |  | 6.8 ± 1.1 |  |
| C[C@@H]1[C@H]2[C@H]3C(=O)C=C4[C@@]5(C)C=C(C#N)C(=O)C(C)(C)[C@@H]5CC[C@@]4(C)[C@]3(C)CC[C@@]2(CC(N)=O)CC[C@H]1C [Compound T90] | 8.74 ± 2.77 |  | 4.60 ± 2.34 |  | 3.71 ± 0.99 |  | 0.455 ± 0.131 |  |
| Cc1noc(C[C@]23CC[C@@H](C)[C@H](C)[C@H]2[C@H]2C(=O)C=C4[C@@]5(C)C=C(C#N)C(=O)C(C)(C)[C@@H]5CC[C@@]4(C)[C@]2(C)CC3)n1 [Compound T96] | 13.3 ± 3.7 |  | 7.08 ± 3.49 |  | 10.6 ± 0.7 |  | 1.32 ± 0.21 |  |
| C[C@@H]1[C@H]2[C@H]3C(=O)C=C4[C@@]5(C)C=C(C#N)C(=O)C(C)(C)[C@@H]5CC[C@@]4(C)[C@]3(C)CC[C@@]2(Cn2cncn2)CC[C@H]1C [Compound T47] | 8.19 ± 2 | 8.19 ± 2 | 2.70 ± 0.52 |  | 7.08 ± 1.2 | 7.1 ± 1.2 | 0.573 ± 0.139 |  |
| C[C@@H]1[C@H]2[C@H]3C(=O)C=C4[C@@]5(C)C=C(C#N)C(=O)C(C)(C)[C@@H]5CC[C@@]4(C)[C@]3(C)CC[C@@]2(n2cnnn2)CC[C@H]1C [Compound T61] | 12.5 ± 7.3 |  | 4.11 ± 0.26 |  | 7.53 ± 2.25 |  | 0.601 ± 0.122 |  |
| CC1(C)CC[C@]2(Cn3ccnn3)CC[C@]3(C)[C@H](C(=O)C=C4[C@@]5(C)C=C(C#N)C(=O)C(C)(C)[C@@H]5CC[C@]43C)[C@@H]2C1 [CC50, reference compound] |  |  |  | 1.1 |  |  |  | 9.57 |
| C[C@@H]1[C@H]2[C@H]3C(=O)C=C4[C@@]5(C)C=C(C#N)C(=O)C(C)(C)[C@@H]5CC[C@@]4(C)[C@]3(C)CC[C@@]2(CNS(=O)(=O)C2CC2)CC[C@H]1C [Compound T33] | 6.84 ± 1.59 |  | 2.32 ± 0.42 |  | 6.93 ± 1 |  | 0.621 ± 0.137 |  |
| COC(=O)N[C@]12CC[C@@H](C)[C@H](C)[C@H]1[C@H]1C(=O)C=C3[C@@]4(C)C=C(C#N)C(=O)C(C)(C)[C@@H]4CC[C@@]3(C)[C@]1(C)CC2 [Compound T66] | 11 ± 3 |  | 4.64 ± 0.70 |  | 9.91 ± 0.25 |  | 0.857 ± 0.057 |  |
| CC1(C)CC[C@]2(CNC(=O)C3CC3)CC[C@]3(C)[C@H](C(=O)C=C4[C@@]5(C)C=C(C#N)C(=O)C(C)(C)[C@@H]5CC[C@]43C)[C@@H]2C1 [CC19, reference compound] |  |  |  | 0.5 |  |  |  | 3.22 |
| C[C@@H]1[C@H]2[C@H]3[C@H]4C[C@@H]5[C@@]6(C)C=C(C#N)C(=O)C(C)(C)[C@@H]6CC[C@@]5(C)[C@]3(C)CC[C@]2(CC[C@H]1C)C(=O)O4 [Compound T102] | 108 ± 19 |  | 36.5 ± 16.9 |  | 338 ± 11 |  | 31.2 ± 5.3 |  |
| COC(=O)N1CCC(=O)N1C[C@]12CC[C@@H](C)[C@H](C)[C@H]1[C@H]1C(=O)C=C3[C@@]4(C)C=C(C#N)C(=O)C(C)(C)[C@@H]4CC[C@@]3(C)[C@]1(C)CC2 [Compound T53] | 2.79 ± 0.59 |  | 0.82 ± 0.08 |  | 1.74 ± 0.47 |  | 0.173 ± 0.054 |  |
| [2H]C([2H])([2H])C(=O)N(C)C[C@]12CC[C@@H](C)[C@H](C)[C@H]1[C@H]1C(=O)C=C3[C@@]4(C)C=C(C#N)C(=O)C(C)(C)[C@@H]4CC[C@@]3(C)[C@]1(C)CC2 [Compound T37] | 5.76 ± 1.38 |  | 2.08 ± 0.31 |  | 6.04 ± 2.15 |  | 0.486 ± 0.047 |  |
| C[C@@H]1[C@H]2[C@H]3C(=O)C=C4[C@@]5(C)C=C(C#N)C(=O)C(C)(C)[C@@H]5CC[C@@]4(C)[C@]3(C)CC[C@@]2(CN2CCNC2=O)CC[C@H]1C [Compound T45] | 8.79 ± 2.72 |  | 3.22 ± 0.99 |  | 6.14 ± 1.47 |  | 0.563 ± 0.065 |  |
| COC(C)c1noc([C@]23CC[C@@H](C)[C@H](C)[C@H]2[C@H]2C(=O)C=C4[C@@]5(C)C=C(C#N)C(=O)C(C)(C)[C@@H]5CC[C@@]4(C)[C@]2(C)CC3)n1 (stereo partly shown) [Compound T6] | 7.66 ± 1.52 |  | 3.67 ± 1.40 |  | 11.8 ± 1.9 |  | 1.03 ± 0.01 |  |
| C[C@@H]1[C@H]2[C@H]3C(=O)C=C4[C@@]5(C)C=C(C#N)C(=O)C(C)(C)[C@@H]5CC[C@@]4(C)[C@]3(C)CC[C@@]2(c2nc(COC(C)(C)C)no2)CC[C@H]1C [Compound T9] | 11.3 ± 2.4 |  | 5.37 ± 0.71 |  | 19.3 ± 4.5 |  | 1.84 ± 0.20 |  |
| CNC(=O)N(C)C[C@]12CC[C@@H](C)[C@H](C)[C@H]1[C@H]1C(=O)C=C3[C@@]4(C)C=C(C#N)C(=O)C(C)(C)[C@@H]4CC[C@@]3(C)[C@]1(C)CC2 [Compound T36] | 5.08 ± 1.51 | 5.08 ± 1.51 | 1.25 ± 0.47 |  | 5.21 ± 1.17 | 5.21 ± 1.17 | 0.441 ± 0.075 |  |
| C[C@@H]1[C@H]2[C@H]3C(=O)C=C4[C@@]5(C)C=C(C#N)C(=O)C(C)(C)[C@@H]5CC[C@@]4(C)[C@]3(C)CC[C@@]2(CN(C)C(=O)C(C)(F)F)CC[C@H]1C [Compound T38] | 39.2 ± 4.2 |  | 9.52 ± 1.82 |  | 34.5 ± 7.6 |  | 2.76 ± 0.32 |  |
| C[C@@H]1[C@H]2[C@H]3C(=O)C=C4[C@@]5(C)C=C(C#N)C(=O)C(C)(C)[C@@H]5CC[C@@]4(C)[C@]3(C)CC[C@@]2(C(=O)NC2CC2)CC[C@H]1C [Compound T86] | 28.5 ± 6.5 |  | 7.09 ± 1.54 |  | 24.8 ± 6.4 |  | 2.12 ± 0.16 |  |
| C[C@@H]1[C@H]2[C@H]3C(=O)C=C4[C@@]5(C)C=C(C#N)C(=O)C(C)(C)[C@@H]5CC[C@@]4(C)[C@]3(C)CC[C@@]2(n2ccnn2)CC[C@H]1C [Compound T60] | 18.2 ± 6.2 |  | 4.94 ± 1.78 |  | 8.89 ± 1.13 |  | 0.791 ± 0.111 |  |

Second part, led by results:

| IC50 [2, 5] [nM] | IC50 [2, 6] [nM] | Avg NO IC50 Relative to RTA402 (fold) [2] [fold] | IC50 [2, 8] [nM] | Compound | EC (2-fold) [1, 3] [nM] | EC (2-fold) [1, 4] [nM] | Relative Avg AREc32 EC2X Relative to RTA402 (fold) ([1]; Table 2) | EC (2-fold) [1, 7] [nM] |
| --- | --- | --- | --- | --- | --- | --- | --- | --- |
|  |  |  | 17.3 | CC1(C)CC[C@]2(CN3CCOC3)CC[C@]3(C)[C@H](C(=O)C=C4[C@@]5(C)C=C(C#N)C(=O)C(C)(C)[C@@H]5CC[C@]43C)[C@@H]2C1 [CC42, reference compound] |  |  |  | 122 |
|  |  |  | 0.4 | CCC(=O)NC[C@]12CCC(C)(C)C[C@H]1[C@H]1C(=O)C=C3[C@@]4(C)C=C(C#N)C(=O)C(C)(C)[C@@H]4CC[C@@]3(C)[C@]1(C)CC2 [CC23, reference compound] |  |  |  | 2.37 |
|  |  |  | 3.5 | CC1(C)CC[C@]2(N)CC[C@]3(C)[C@H](C(=O)C=C4[C@@]5(C)C=C(C#N)C(=O)C(C)(C)[C@@H]5CC[C@]43C)[C@@H]2C1 [CC16, reference compound] |  |  |  | 27.7 |
|  |  |  | 1.1 | CC1(C)CC[C@]2(CN3CCC3=O)CC[C@]3(C)[C@H](C(=O)C=C4[C@@]5(C)C=C(C#N)C(=O)C(C)(C)[C@@H]5CC[C@]43C)[C@@H]2C1 [CC14, reference compound] |  |  |  | 5.24 |
|  |  |  | 0.5 | CNC(=O)NC[C@]12CCC(C)(C)C[C@H]1[C@H]1C(=O)C=C3[C@@]4(C)C=C(C#N)C(=O)C(C)(C)[C@@H]4CC[C@@]3(C)[C@]1(C)CC2 [CC26, reference compound] |  |  |  | 2.75 |
|  |  |  | 0.5 | [2H]C([2H])([2H])C(=O)NC[C@]12CCC(C)(C)C[C@H]1[C@H]1C(=O)C=C3[C@@]4(C)C=C(C#N)C(=O)C(C)(C)[C@@H]4CC[C@@]3(C)[C@]1(C)CC2 [CC24, reference compound] |  |  |  | 2.96 |
